Measured values as given in patent US20090031455A1 (priority 2004, published 2009).

Key:
[1] = system: recombinant FaPINH; test: recombinant enzyme activity assay with yeast microsomes, GC-MS; details: for hydroxylation of alternative substrates by PINH: position analogous to α-pinene C10 (C7), FIGS. 3-4
Procedure: Microsome preparations were evaluated by CO-difference spectrum and were assayed for (−)-α-pinene hydroxylation. The reaction mixture for the recombinant enzyme activity assay, in a final volume of 1 ml, contained 50 mM Tris-HCl pH 7.4, 1 mM EDTA, 0.1 mM DTT, 0.8 units glucose-6-phosphate dehydrogenase, 2 mM glucose 6-phosphate, 5 μM FAD, 5 μM FMN, 1 mM NADPH, and 200 μL of microsomal preparation. 200 nmol (−)-α-pinene (in less than 10 μl, which has no detectable influence on the reaction) were added to the mixture to start the reaction, which was allowed to proceed for 2 hours at 30° C. with gentle shaking. Microsomes isolated from cells harboring the empty vector were employed as controls. The reaction was stopped by chilling the mixture on ice and extracting twice with 1.0-mL portions of pentane:diethyl ether (4:1). The combined extract was passed through a short column of silica gel and anhydrous MgSO4, after which the column was washed with 1.5 mL diethyl ether to remove residual compounds. After concentration under N2, the samples were analyzed by GC-MS. Samples (2 μL) were analyzed by an automated injector on a Hewlett-Packard 5890 series II gas chromatograph equipped with a 30 m×0.25 mm inner diameter fused silica column coated with a 0.25 μm film of HP 5MS (Hewlett-Packard), and a Hewlett-Packard 5972A Mass Selective Detector. GC oven temperature was programmed at an initial temperature of 45° C. for 1 min, with a ramp of 10° C. min-1 to 280° C., and a final time of 10 min. Full spectra were recorded for major reaction products, which were identified by comparing retention times with authentic standards and by comparing spectra with those of the NSB75K library, using the G1033A NIST probability based matching algorithm.

[2] = system: plant pathogens; type: cell-based; details: for antimicrobial effect compared with geraniol: data not shown; for antimicrobial effect compared with perilla alcohol: FIGS. 7-8
[3] = system: Phytophthora infestans; type: cell-based; details: P. infestans; for inhibition of mycelial growth: FIG. 8
[4] = system: Botrytis elliptica; type: cell-based
[5] = system: Pythium aphanidermatum; type: cell-based
[6] = system: Phytophthora infestans; type: cell-based; details: P. infestans; for inhibition of spore germination: FIG. 7
[7] = system: Botrytis elliptica; type: cell-based; remark: listed apart in the source
[8] = system: PINH expressed in Saccharomyces cerevisiae; test: in vivo bioconversion assay with intact transgenic yeast cells expressing PINH; details: 500 μM (−)-α-pinene, 2 h at 30° C.
Procedure: Transformants were selected on SGI medium, while expression was carried out in YPL medium (induction with 2% galactose) (Pompon et al., 1996). Intact cells were harvested and used for an in vivo assay, by incubation in 50 mM Tris-HCl buffer (pH 7.4) containing 0.1 mM DTT and 1 mM EDTA in the presence of 500 μM (−)-α-pinene. The reaction was allowed to proceed for 2 h at 30° C. with gentle shaking. Controls containing no substrate, and cells containing vector without insert, were also used for in vivo assays. The assays were extracted and analysed using GC-MS as described under Example 3.

CC1=CC[C@H]2C[C@@H]1C2(C)C [(−)-α-pinene]
substrate preference between enantiomers ([1]; (−)- versus (+)-α-pinene): preferred to (+)-α-pinene

CC(C)=CCCC(C)=CC=O [citral]
antimicrobial effect compared with geraniol [2]: more effective than geraniol

CC(C)=CCC/C(C)=C/C(=O)O [geranic acid]
antimicrobial effect compared with geraniol [2]: more effective than geraniol

C=C(C)[C@H]1CC=C(C)CC1 [limonene]
hydroxylation of alternative substrates by PINH [1]: efficiently hydroxylated

CC1(C)C2CC=C(CO)C1C2 (stereo not shown) [myrtenol]
effectiveness against mycelial growth compared with linalool [3]: more effective than linalool | inhibition of mycelial growth [3]: effectively inhibited | effectiveness against mycelial growth compared with linalool [4]: slightly more effective than linalool | inhibition of mycelial growth [4]: effectively inhibited | effectiveness against mycelial growth compared with linalool [5]: less effective than linalool | inhibition of mycelial growth [5]: effectively inhibited | inhibition of spore germination [6]: effective inhibitors | inhibition of spore germination [7]: effective inhibitors

Cc1ccc(C(C)C)cc1 [p-cymene]
hydroxylation of alternative substrates by PINH [1]: hydroxylated at C7

C=C(C)[C@@H]1CC=C(CO)CC1 [perilla alcohol]
effectiveness against mycelial growth compared with linalool [3]: more effective than linalool | inhibition of mycelial growth [3]: effectively inhibited | effectiveness against mycelial growth compared with linalool [4]: slightly more effective than linalool | inhibition of mycelial growth [4]: effectively inhibited | effectiveness against mycelial growth compared with linalool [5]: more effective | inhibition of mycelial growth [5]: effectively inhibited | inhibition of spore germination [6]: effective inhibitors | effectiveness against spore germination relative to linalool and myrtenol [7]: about 2 fold | inhibition of spore germination [7]: effective inhibitors

C=C(C)C1CC=C(C=O)CC1 (stereo not shown) [perilla aldehyde]
effectiveness against mycelial growth compared with linalool [3]: more effective than linalool | inhibition of mycelial growth [3]: effectively inhibited | effectiveness against mycelial growth relative to linalool ([3]; more effective than linalool): 4-5 fold | effectiveness against mycelial growth compared with linalool [4]: slightly more effective than linalool | inhibition of mycelial growth [4]: effectively inhibited | effectiveness against mycelial growth compared with linalool [5]: more effective | inhibition of mycelial growth [5]: effectively inhibited | inhibition of spore germination [6]: effective inhibitors | effectiveness against spore germination relative to linalool ([6]; FIG. 7A, more effective than linalool): about 10 fold | effect on spore germination at the concentration tested [7]: completely blocks germination | inhibition of spore germination [7]: effective inhibitors | antimicrobial effect compared with perilla alcohol [2]: more effective than perilla alcohol

C=C(C)[C@@H]1CC=C(C(=O)O)CC1 [perillic acid]
antimicrobial effect compared with perilla alcohol [2]: more effective than perilla alcohol

CC1=CC[C@H](C(C)C)C=C1 [α-phellandrene]
hydroxylation of alternative substrates by PINH [1]: hydroxylated at the same position

CC1=CCC2CC1C2(C)C (stereo not drawn) [α-pinene]
substrate hydroxylated at C-10 to form myrtenol ([1]; microsomes from FaPINH expressing yeast, 2 hours at 30° C.): over 50% | conversion into myrtenol by intact yeast cells [8]: efficiently converted

CC1=CC=C(C(C)C)CC1 [α-terpinene]
hydroxylation of alternative substrates by PINH [1]: hydroxylated at the same position

CC1=CCC(=C(C)C)CC1 [α-terpinolene]
hydroxylation of alternative substrates by PINH [1]: hydroxylated at the same position
